This note sets out measurements from patent US20220054658A1, “CONJUGATES” (Transfection Holdings Limited, priority 2018, published 2022).

“Also recorded” adds a separate entry of the source.

Assay [1] relates to C. elegans. The assay can be described thus: Conjugate uptake in C. elegans (dye and praziquantel conjugates, fluorescence microscopy). In kind it is in vivo, Caenorhabditis elegans. The following applies: 50 μM; for viability of the nematodes: readings up to 72 h. As for the experimental part:
Nematode Growth Media (NGM) plates containing C. elegans were washed with 1.0-1.5 mL of standard M9 buffer and the washes were collected in an Eppendorf tube. The liquid containing the C. elegans was then spun for 1 min at room temperature at 10,000 rpm. The supernatant was removed, and fresh M9 buffer was added (500 μL) to generate a new stock solution of M9 buffer containing the C. elegans.
A C. elegans suspension (100 μL) was added a defined amount of M9 buffer (determined by the final desired concentration of compound to be tested: 399 μL in the case of the BODIPY tagged derivatives) contained within a separate Eppendorf tube. To this was then added a 25 mM solution of the compound in DMSO (1 μL). The resulting suspension was mixed using a vortex instrument.
The resulting mixture was incubated at room temperature for 2 to 4 h. in the dark (using aluminium foil to screen the tube, which was also stored in a cabinet).
Other samples were incubated overnight. Here, OP50 bacteria (3 μL) were added to the worms for feeding purposes, and the worms were kept in the dark at 20° C.
After the incubation, the tube contents were mixed gently by hand (typically by simple rotation of the tube), so as to achieve a homogenous suspension. A sample of the suspension (250 μL) was taken and mixed with M9 buffer (500 μL). The resulting suspension was placed in a centrifuge and spun at room temperature at 10,000 rpm for 1 min. The supernatant was removed, and the washing process was repeated twice more, each time using further quantities of fresh M9 buffer (500 μL each time). After the final washing sufficient supernatant was removed so as to leave a final sample volume of approximate 30 μL.
A 1.5% agarose solution in water was pre-warmed for 60 to 90 s. in a standard household style microwave (set to Power 4). Two drops of this solution was removed and placed on a glass slide. The glass slide was covered with a second glass slide. After 1 min., the slides were slid carefully apart, with the agarose remaining on one of the slides. Onto this slide was placed an aliquot of the final C. elegans solution (15 to 20 μL). To this was added a 20 mM sodium azide solution (5 μL) to inhibit nematode mobility. Vaseline was then placed around the agarose area before replacing the second slide. The slides were not pressed together.
The nematodes were then analysed using a Zeiss Axiskop 2 Plus microscope with a Hamamatsu Orca-ER (CA 742-95) camera. The images were resolved using OpenLab on a Mac operating system.
Compounds 1-11 were evaluated after 3 h and overnight incubation at a 50 μM concentration using the general uptake protocol described for C. elegans.
In order to compare the ability of a conjugate to improve the uptake of the drug praziquantel, two praziquantel derivatives were generated. Praziquantel was tagged with a BODIPY fluorescent tag (compound 12) and incorporated into a conjugate of the invention (compound 13). Compounds 12 and 13 were evaluated at a concentration of 50 μM using the C. elegans uptake protocol described above for compounds 1-11. Microscopic readings were taken after 3, 24 and 72 h.

Assay [2] relates to gastrointestinal system (crop, midgut and rectum) of adult honey bees. As to the kind of experiment: Honey bee gut uptake test. Also on record: species or system Apis mellifera. The following applies: 100 μM, 33° C., 45 min. As for the experimental part: Honey bee (A. mellifera) hives were obtained and allowed to feed ab libitum spring to autumn. During the winter period, pollen mixed with 50% (v/v) sucrose was added to the honey bee hives in order to provide sufficient food. Honey bees were dissected and gastrointestinal system was removed including the crop, midgut and rectum, and added immediately to 500 μL of the delivery vehicle to be tested sample diluted with PBS at 100 μM final concentration or DMSO (0.1%) control. The mixture was incubated for 45 min at 33° C.
The gastrointestinal system (crop, midgut and rectum) of adult honey bees was extracted, and incubated with derivatives 1, 2, 8 and 11 at 100 μM and 33° C. for 45 min.

For assay [3], the system named is L. passim strain PRA-403. As to the kind of experiment: Lotmaria passim parasite uptake test. The following applies: room temperature, 45 min; for uptake in L. passim (fluorescence intensity, microplate reader): 1 μM and 100 μM. The assay is classed as cell-based. The protocol:
100 mM stock solutions of BODIPY derivatives were prepared with dimethylsulfoxide (DMSO). L passim strain PRA-403 (ATCC) was cultured in modified medium for C. bombi (Tognazzo et al.). The parasite culture was centrifuged, supernatant was removed and 500 μL of L passim medium with compound (final concentration 500, 100, 10 or 1 μM for BODIPY derivatives) or DMSO (0.1%) control was added. Incubated for 45 min at room temperature.
Uptake tests were performed at 1 μM and 100 μM final concentration of CJ-BODIPY derivatives. After incubation at room temperature for 45 min, fluorescence intensities were evaluated using a microplate reader.

For `CC1(C)OCC(C)(C)[C@H](C(=O)N/C=C/C(=O)NCCc2cn(CCCC3=[N+]4C(=Cc5ccc(CCC(=O)N6CC(=O)N7CCc8ccccc8C7C6)n5[B-]4(F)F)C=C3)nn2)O1` (stereo partly drawn) [Compound 13, 5,5-Difluoro-7-(3-oxo-3-(4-oxo-3,4,6,7-tetrahydro-1H-pyrazino[2,1-a]isoquinolin-2(11bH)-yl)propyl)-3-(3-(4-(2-((E)-3-((R)-2,2,5,5-tetramethyl-1,3-dioxane-4-carboxamido)acrylamido)ethyl)-1H-1,2,3-triazol-1-yl)propyl)-5H-dipyrrolo[1,—2-c:2′,1′-f][1,3,2]diazaborinin-4-ium-5-uide], the “uptake: location of fluorescence in C. elegans” value (“uptake: location of fluorescence” for short) in assay [1] (3 h incubation) was “strongly located in the pharynx, gut cells and gut lumen of the larval stages; also recorded: In the adult nematodes, compound 13 was strongly located in the pharynx, gut cells and gut lumen, whilst not visible in the embryos”; in assay [1] (24 h incubation) it was “strongly observed in the pharynx, gut cells and gut lumen of the larva”; in assay [1] (72 h incubation), “still strongly visible in the pharynx, gut lumen and get cells of the larvae; also recorded: In the case of the adult nematodes, compound 13 was strongly visible in the pharynx and in the gut lumen, as well as in the embryos and eggs”. For the same molecule, the “increase in uptake of compound 13 compared to compound 12” value in assay [1] (20 h incubation) was “threefold increase”. Further, the “viability of the nematodes” value in assay [1] is “remained viable with no apparent detrimental effect”.
Regarding `CC1=CC(C)=[N+]2C1=Cc1ccc(CCCn3cc(CCNC(=O)/C=C\NC(=O)[C@H](O)C(C)(C)CO)nn3)n1[B-]2(F)F` [Compound 6, (Z)—N-((((3-[4,4-Difluoro-5,7-dimethyl-4-bora-3a,4a-diaza-s-indacene-3-yl]propyl)-1H-1,2,3-triazol-4-yl)ethylamino)-3-oxoprop-1-enyl)-2,4-dihydroxy-3,3-dimethylbutanamide], the “uptake compared to other compounds” value in assay [1] (3 h incubation) is “much lower degree than the enantiomeric analogue compound 8”. Further, the “uptake: location of fluorescence” value in assay [1] (3 h incubation) was “visible in the gut cells and gut lumen of larval stages and in a lesser extent in the pharynx; also recorded: In adults, fluorescence was located in the pharynx, gut lumen and gut cells; also recorded: Fluorescence was not observed in the embryos”; in assay [1] (20 h / overnight incubation), “fluorescence was present in the gut lumen and gut cells, and to a smaller degree in the pharynx of the larvae; also recorded: Fluorescence was also present in the pharynx, gut cells and gut lumen of the adults as well as in the early stages of egg development; also recorded: Fluorescence was not observed in the embryos”.
As for `CC1=CC(C)=[N+]2C1=Cc1ccc(CCCn3cc(CCNC(=O)/C=C\NC(=O)[C@H](O)C(C)(C)CO)nn3)n1[B-]2(F)F` [Compound 8, (Z)—N-((((3-[4,4-Difluoro-5,7-dimethyl-4-bora-3a,4a-diaza-s-indacene-3-yl]propyl)-1H-1,2,3-triazol-4-yl)ethylamino)-3-oxoprop-1-enyl)-2,4-dihydroxy-3,3-dimethylbutanamide], the “fluorescence in honey bee gut (crop, midgut, rectum)” value in assay [2] was “slight fluorescence in midgut and rectum, but none in the crop”. For the same molecule, in assay [3], the “uptake in L. passim (fluorescence intensity, microplate reader)” value is given as “relatively low uptake”. Further, the “uptake in L. passim (fluorescence microscopy)” value in assay [3] (10 μM) is on record as “displayed fluorescence surrounding the cell membrane but not in the cytoplasm”. In addition, in assay [1] (3 h incubation), the “uptake compared to other compounds” value is reported as “second largest uptake observed compared to compounds 1 to 7”; the “uptake: location of fluorescence” value is “visible in the gut cells and gut lumen and to a lesser extent into the pharynx of larvae; also recorded: In adults, fluorescence was observed in the pharynx, the gut lumen, the gut cells, and eggs”. The “uptake: location of fluorescence” value in assay [1] (20 h / overnight incubation) is “fluorescence was present in the pharynx, gut lumen and gut cells of the larvae; also recorded: In adults, fluorescence was detected in the pharynx, gut lumen and gut cells, but not in the embryos”.
As to `CC1=CC(C)=[N+]2C1=Cc1ccc(CCC(=O)N3CC(=O)N4CCc5ccccc5C4C3)n1[B-]2(F)F` (stereo not drawn) [Compound 12, 5,5-Difluoro-1,3-dimethyl-7-(3-oxo-3-(4-oxo-3,4,6,7-tetrahydro-1-pyrazino[2,1-a]isoquinolin 2(11 bH)-yl)propyl)-5H-dipyrrolo[1,2-c:2′,1′-f][1,3,2]diazaborinin-4-ium-5-uide, reference compound], the “uptake: location of fluorescence” value in assay [1] (3 h incubation) was “weakly up taken up into the pharynx and gut cells of the C. elegans larvae, as well as by adult nematodes mainly in the gut cells with lesser amount in the pharynx”; in assay [1] (24 h incubation), “the larva showed no increased uptake, with very minor amounts of compound 12 located in the pharynx and the gut cells”; in assay [1] (72 h incubation) it was “only the gut cells of the larvae showed the presence of small amounts of fluorescence; also recorded: In the case of the adult stages, fluorescence was visible in the gut lumen, gut cells and pharynx”. In assay [1], the “viability of the nematodes” value is given as “remained viable with no apparent detrimental effect”.
On to `CC1=CC(C)=[N+]2C1=Cc1ccc(CCCn3cc(CCNC(=O)/C=C\NC(=O)[C@H]4OC(C)(C)OCC4(C)C)nn3)n1[B-]2(F)F` [Compound 4, (Z)—N-((((3-[4,4-Difluoro-5,7-dimethyl-4-bora-3a,4a-diaza-s-indacene-3-yl]propyl)-1H-1,2,3-triazol-4-yl)ethylamino)-3-oxoprop-1-enyl)-2,2,5,5-tetramethyl-1,3-dioxane-4-carboxamide], for which the “uptake in L. passim (fluorescence intensity, microplate reader)” value in assay [3] is “one of the lowest amounts of uptake”. For the same molecule, the “uptake: location of fluorescence” value is “traces of compound 4 were present in the gut cells of larval stages” in assay [1] (3 h incubation); “fluorescence was detected in the pharynx and the gut cells of the larval stages as well as in the early stage of egg development” in assay [1] (20 h / overnight incubation).
